Our source for the cytotoxicity values is ChEMBL document CHEMBL3507680, “University of Dundee, Gates Library screen for HepG2 cell viability”.

This series in a line: Human HepG2 cell viability assay in 384 well format. The series is classed as toxicity, cell-based. Details: dose 125 nL, time 70.5 hour; concentration not given beside the values. As to conditions: HepG2 cells, read-out: Inhibition.

In the case of `CC(C)Oc1cccc(C(=O)C2CCCN(C(=O)c3ccccn3)C2)c1` (configuration not stated), the cytotoxicity at 70.5 h is -8.75%.

Turning to `CN(CCC1CCOCC1)C(=O)C1CCC(=O)N(Cc2ccccn2)C1` (configuration not stated), the cytotoxicity at 70.5 h came to 13.4%.

Take `COCCN1CCC(c2nc3c([nH]2)CCCNC3=O)CC1`: the cytotoxicity at 70.5 h is -8.24%.

Regarding `c1ccc(C2CN(C3CC3)CC3(CCN(Cc4cscn4)CC3)C2)cc1` (configuration not stated), the cytotoxicity at 70.5 h was -5.25%.

Turning to `Nc1cc(N2CCCC(COc3ccc(F)cc3)C2)nc(N)n1` (configuration not stated), the cytotoxicity at 70.5 h is -2.71%.

On to `O=c1c2cccc(C(F)(F)F)c2ncn1CCN1CCNCC1`, for which the cytotoxicity at 70.5 h is -1.89%.

Take `Cc1nc2c(N3CCC(O)(Cn4ccnc4)CC3)ncnc2o1`: the cytotoxicity at 70.5 h was -0.124%.

Take `COCc1nc(CNC2CCSC2)no1` (configuration not stated): the cytotoxicity at 70.5 h was -2.87%.

Regarding `Fc1cccnc1Oc1cc(F)c(CN2CCCC2)c(Cl)c1`, the cytotoxicity at 70.5 h was determined as 22.4%.

As for `CN(CC(=O)N1CC(Oc2ccccc2Cl)C1)Cc1ccncc1`, the cytotoxicity at 70.5 h is 12.8%.

Regarding `COC1CCCN(C2CCN(c3cccc(-c4csc(C)n4)c3)CC2)C1` (configuration not stated), the cytotoxicity at 70.5 h is -1.69%.

In the case of `Cc1sc2nc(CCN)nc(N3CCC(N4CCCC4)CC3)c2c1C`, the cytotoxicity at 70.5 h was -4.21%.

On to `CCCNC(=O)c1ccc(S(=O)(=O)NCC2(O)CCCNC2)cc1` (configuration not stated), for which the cytotoxicity at 70.5 h was -5.48%.

With `CCc1nnc(CNC(=O)CCCN2CCCCC2)s1`, the cytotoxicity at 70.5 h was -0.919%.

As to `COc1nc2c(cc1C(=O)N1CCCOC(Cn3cccn3)C1)CCC2` (configuration not stated), the cytotoxicity at 70.5 h was -2.14%.

Regarding `COc1cccc(CN2CCN(Cc3ccc4nonc4c3)CC2=O)c1`, the cytotoxicity at 70.5 h was -0.956%.

Regarding `N[C@H]1CN(C(=O)c2ccc3[nH]c(CO)nc3c2)C[C@@H]1c1ccccc1`, the cytotoxicity at 70.5 h is -19.4%.

For `CN(Cc1cccnc1)C[C@H]1CC[C@@H](Cc2ccc3c(cnn3C)c2)O1`, the cytotoxicity at 70.5 h is -10.4%.

For the molecule `CC(=O)NCC(=O)N1Cc2c(-c3cccc(C)c3)nc(N)nc2C1C` (configuration not stated), the cytotoxicity at 70.5 h is -13.1%.

As for `CCOc1ccc(CN2CCNC(C(=O)NC3CC3)C2)cc1CO` (configuration not stated), the cytotoxicity at 70.5 h was -10.9%.

Take `Cc1c(CN2CCCC(C(=O)c3ccc(C(C)(C)C)cc3)C2)cnn1C` (configuration not stated): the cytotoxicity at 70.5 h is -4.49%.

Take `O=C(NCCOc1ccccc1)C1NCCc2[nH]cnc21` (configuration not stated): the cytotoxicity at 70.5 h is -7.83%.

Turning to `O=C1CN(Cc2cnc3c(-c4ccccc4)cnn3c2)CCCN1`, the cytotoxicity at 70.5 h was -6.12%.

With `CCN1CCN(S(=O)(=O)N2CCc3ccccc3C2)[C@H]2CS(=O)(=O)C[C@H]21`, the cytotoxicity at 70.5 h is -9.8%.

In the case of `O=C(c1cnc(COc2ccccc2)nc1O)N1CCOCC1`, the cytotoxicity at 70.5 h was -5.87%.

On to `CN1CCCN(C(=O)c2ccc3c(c2)nc(N2CCOCC2)n3C)CC1`, for which the cytotoxicity at 70.5 h was -8.33%.

For `CCn1nc(CC(C)C)cc1C(=O)N1CC[C@@H](O)C1`, the cytotoxicity at 70.5 h was -3.86%.

In the case of `COCC(=O)N1Cc2cnc(Cc3ccc(OC)cc3)nc2C1`, the cytotoxicity at 70.5 h was found to be 1.24%.

As to `CN(CCN1CCCCCC1)C(=O)c1cc(CN2CCC(O)CC2)on1`, the cytotoxicity at 70.5 h is -0.511%.

Regarding `O=C(NCc1cc(O)ncn1)C1COc2ccccc2C1` (configuration not stated), the cytotoxicity at 70.5 h was -8.68%.

For the molecule `COc1ncc(C2CC(=O)NCc3nc4ccccn4c32)cn1` (configuration not stated), the cytotoxicity at 70.5 h was -13.5%.

Take `Cc1cnccc1N1CCCN(C(=O)CCCS(N)(=O)=O)CC1`: the cytotoxicity at 70.5 h came to 3.54%.

In the case of `CCN1CCC2(CCC1=O)CN(c1ccnc(SC)n1)CCN2C` (configuration not stated), the cytotoxicity at 70.5 h amounted to 3.52%.

For the molecule `COC(=O)NCc1cc2n(n1)CCCN(C(C)=O)C2`, the cytotoxicity at 70.5 h is -7.46%.

For the molecule `O=C(O)c1cc(-c2cccnc2)cc(S(=O)(=O)N2CCCCCC2)c1`, the cytotoxicity at 70.5 h was -11.7%.

With `Cc1cc(N2CCCN(C(=O)Cc3ccc(O)c(Cl)c3)CC2)ccn1`, the cytotoxicity at 70.5 h is -4.07%.

With `Cc1ccc(-c2cccc(-c3ccn(CCN4CCCC4)n3)c2)nn1`, the cytotoxicity at 70.5 h was -6.29%.

Turning to `Cc1[nH]ccc1C(=O)N1CCCC(c2nccn2Cc2cscn2)C1` (configuration not stated), the cytotoxicity at 70.5 h turned out to be 20.2%.

As to `Cc1ccc2c(c1)c(CNC(=O)C1CC(=O)N(C3CCCC3)C1)nn2C` (configuration not stated), the cytotoxicity at 70.5 h came out at 16.8%.

On to `CCCc1cc(C(=O)N(C)Cc2cccc3ncccc23)n(C)n1`, for which the cytotoxicity at 70.5 h was -14.7%.

Take `CCn1c(N)nc2cc(C(=O)NCCc3ccccc3C)cnc21`: the cytotoxicity at 70.5 h is -5.73%.

Consider `Cc1cc(C[C@@H]2COC[C@@H]2NC(=O)CN2CCCN(C)CC2)on1`, for which the cytotoxicity at 70.5 h was -7.54%.

Consider `CN(Cc1cc[nH]n1)C(=O)c1cccc(CCC(C)(C)O)c1`, for which the cytotoxicity at 70.5 h is -3.42%.

For `CCNC(=O)[C@@H]1C[C@H](NC(=O)c2cncnc2C)CN1CCCSC`, the cytotoxicity at 70.5 h is -1.96%.

`O=C(c1cccc(S(=O)(=O)NCCCc2ccco2)c1)N1CCOCC1`: the cytotoxicity at 70.5 h is 3.78%.

With `Cc1cc(-c2nnc(SCC(=O)O)n2C(C)c2ccccc2)nn1C` (configuration not stated), the cytotoxicity at 70.5 h is -0.677%.

In the case of `COc1ccc2cc(C3CN(C(=O)C4CCOCC4)CCO3)ccc2c1` (configuration not stated), the cytotoxicity at 70.5 h amounted to 1.57%.

Regarding `C=Cc1ccc(C(=O)N2CCCC(Nc3ccc(OC)cc3)C2)cc1` (configuration not stated), the cytotoxicity at 70.5 h is -7.62%.

As for `CC[C@@]1(O)CCN(C(=O)c2ccc(-c3cccc(F)c3)cc2)C[C@H]1O`, the cytotoxicity at 70.5 h was -7.02%.

As for `Cc1cc(NCc2cc3n(n2)CCCN(C(=O)N(C)C)C3)ncn1`, the cytotoxicity at 70.5 h was -12.5%.

With `Cc1c(F)cccc1CN1CCn2nc(CNC(=O)N(C)C)cc2C1`, the cytotoxicity at 70.5 h came out at 20%.

For the molecule `Cc1c[nH]c(CN(C)c2nc(C3CCCC3)nc3c2cnn3C)n1`, the cytotoxicity at 70.5 h was -2.19%.

As for `CN1C(=O)CC(C(=O)O)C12CCN(Cc1ccc(Cl)cc1F)CC2` (configuration not stated), the cytotoxicity at 70.5 h amounted to 2.06%.

On to `Cc1cccnc1NCCNC(=O)[C@H]1CNC[C@@H](C(=O)N2CCCC2)C1`, for which the cytotoxicity at 70.5 h was found to be 0.731%.

`O=C1O[C@@H]2CN(Cc3ccccc3)C[C@@H]2N1CCCN1CCOCC1`: the cytotoxicity at 70.5 h was -7.7%.

Regarding `CCS(=O)(=O)N1CCC2(CCCN(Cc3cc(OC)ccc3F)C2)C1` (configuration not stated), the cytotoxicity at 70.5 h is -6.66%.

Regarding `Cc1ccc(C(=O)N2CCC3(CCC(=O)N(CC(N)=O)C3)CC2)c(O)c1`, the cytotoxicity at 70.5 h is -9.11%.

For the molecule `CCCc1nc(N2Cc3cnn(Cc4ccc(F)cc4)c3C2)no1`, the cytotoxicity at 70.5 h is -12.8%.

On to `Cc1nc(CC(=O)N2CCC[C@H]2c2nc(C(C)C)no2)cs1`, for which the cytotoxicity at 70.5 h is -1.93%.

In the case of `COc1ncccc1C(=O)NCC(C)Oc1cccnc1` (configuration not stated), the cytotoxicity at 70.5 h is -10.8%.

`CCNC(=O)[C@@H]1C[C@H](NC(=O)Cc2ccsc2)CN1Cc1ccc(C)o1`: the cytotoxicity at 70.5 h was -8.83%.

On to `COc1cccc(CN2CCCC(Nc3cccc(F)c3)C2)c1O` (configuration not stated), for which the cytotoxicity at 70.5 h was -4.92%.

For `CCn1ncnc1C(NC(=O)CC1CCN(C(C)C)CC1)C1CC1` (configuration not stated), the cytotoxicity at 70.5 h stood at 13.7%.

In the case of `O=C(C1CCC1)N1CCN(C(=O)c2cnccn2)[C@H]2CS(=O)(=O)C[C@H]21`, the cytotoxicity at 70.5 h is -11.7%.

Take `O=C(CN1CCNCC1)N1CC[C@@H](c2ccc3ccccc3c2)[C@H](O)C1`: the cytotoxicity at 70.5 h is -6.87%.

In the case of `O=C1CCC2(CCCN(C(=O)c3cscn3)C2)CN1CCc1c[nH]cn1` (configuration not stated), the cytotoxicity at 70.5 h is -9.29%.

With `Cc1cc(N2CCN(Cc3ccc(C)o3)CC2)cc(C)n1`, the cytotoxicity at 70.5 h was -9.4%.

For the molecule `CCN1CC2(CCN(CCOCCO)CC2)CC(c2ccccc2)C1=O` (configuration not stated), the cytotoxicity at 70.5 h was found to be 3.81%.

On to `CCSCCNC(=O)C(c1cccc(C)c1)N(C)C` (configuration not stated), for which the cytotoxicity at 70.5 h came to 35.5%.

In the case of `COC(=O)c1ccc2ccn(CC3CCCO3)c(=O)c2c1` (configuration not stated), the cytotoxicity at 70.5 h is -0.903%.

Regarding `COc1cccc(OCC2CCCN(C3CCN(C(C)=O)CC3)C2)c1` (configuration not stated), the cytotoxicity at 70.5 h is -4.72%.

On to `Cc1cc(C)n(CC(=O)N(C)Cc2csc(-c3cccs3)n2)c(=O)n1`, for which the cytotoxicity at 70.5 h worked out at 6.7%.

On to `c1cnn(Cc2nnc(C3CCN(C4CCOCC4)CC3)n2C2CC2)c1`, for which the cytotoxicity at 70.5 h is -10.6%.

Consider `Cn1ccnc1-c1ccccc1C(=O)N1CCc2c(nc(N)[nH]c2=O)C1`, for which the cytotoxicity at 70.5 h was -11.8%.

On to `CC(=O)NCCC1CCCCN1S(=O)(=O)c1cccc(C#N)c1` (configuration not stated), for which the cytotoxicity at 70.5 h was -2.49%.

For `Cc1ccc([C@@H]2CN(C(=O)c3cccnn3)C[C@H]2NC(=O)C2CC2)cc1`, the cytotoxicity at 70.5 h was -8.66%.

With `CC(C)(C)c1ncc2c(n1)CN(C(=O)c1ccc(-c3nc[nH]n3)cc1)C2`, the cytotoxicity at 70.5 h is -1.51%.

Consider `Cc1cccnc1CN(C)CC1(O)CCCN(CC2CCCCC2)C1=O` (configuration not stated), for which the cytotoxicity at 70.5 h is 18.2%.

On to `OC1(CN2CCCC2)CCCN(Cc2ccc(F)cc2Cl)C1` (configuration not stated), for which the cytotoxicity at 70.5 h is -7.3%.

With `CCc1cc(N2CCSCC2)n2nc(C)c(C)c2n1`, the cytotoxicity at 70.5 h amounted to 12.2%.

With `CSCC[C@H](N)C(=O)NCc1cc2n(n1)CCCN(C1CCCCC1)C2`, the cytotoxicity at 70.5 h is -5.05%.

With `CCSCC(C)NCc1nncn1C1CCCCC1` (configuration not stated), the cytotoxicity at 70.5 h is -2.76%.

With `Cc1nc(CN2CCC(C(=O)O)(n3ccc(-c4ccco4)n3)CC2)co1`, the cytotoxicity at 70.5 h was -7.1%.

`Cc1cnn(C(C)C2CC2)c1NC(=O)c1cnccn1` (configuration not stated): the cytotoxicity at 70.5 h was -11.2%.

For `COc1cc(CN2CCN(c3cccc(OC)c3)C(=O)C2)cc(OC)c1`, the cytotoxicity at 70.5 h was -1.7%.

Take `CCOCCNc1nc(C2CCCC2)nc2c1cnn2C`: the cytotoxicity at 70.5 h turned out to be 0.172%.

As to `COCC(=O)N1CCC(c2nccn2CC2CC2)CC1`, the cytotoxicity at 70.5 h is -8.88%.

For `CN(CCO)Cc1nnc(C2CCN(C3CCCCC3)CC2)n1C`, the cytotoxicity at 70.5 h was -14.7%.

`CCN(CCn1cccn1)Cc1nc(-c2ccccc2F)oc1C`: the cytotoxicity at 70.5 h was -7.43%.

For the molecule `COc1cccc([C@@H]2CN(C(=O)c3ccc(C)cc3O)C[C@H]2C(=O)O)c1`, the cytotoxicity at 70.5 h was -5.65%.

On to `CCn1c(Cn2cncn2)nnc1C1CCN(Cc2ccc(C)o2)CC1`, for which the cytotoxicity at 70.5 h was -8.85%.

Consider `O=C(c1cc(COc2ccc3c(c2)OCO3)[nH]n1)N1CCOCC1`, for which the cytotoxicity at 70.5 h amounted to 9.33%.

`CC(C)(C)c1ncc2c(n1)CN(C(=O)c1ccncc1)C2`: the cytotoxicity at 70.5 h is -9.79%.

As to `CC(C)NS(=O)(=O)c1cc(C(=O)O)cc(-c2ccc(CN(C)C)cc2)c1`, the cytotoxicity at 70.5 h was 16.9%.

With `Cc1[nH]ccc1C(=O)N1CCC(c2nnc(Cn3ccnc3)n2C)CC1`, the cytotoxicity at 70.5 h was -11.8%.

As to `Cc1nn(CCn2ccnc2-c2cc3n(n2)CCCNC3)c(C)c1Cl`, the cytotoxicity at 70.5 h turned out to be 13.8%.

`CNCCc1nc2cc(F)ccc2[nH]1`: the cytotoxicity at 70.5 h was -5.66%.
